# Measurements from US20200009105A1, “PROSTACYCLIN, PROSTACYCLIN ANALOGS, AND METHODS OF TREATING OR PREVENTING REJECTION OF SOLID ORGAN TRANSPLANTS” (VANDERBILT UNIVERSITY, priority 2017, published 2020).
# Several values for one entry are separate records, joined by “and”; a condition that tells them apart may be missing. Equal entries are not always repeated.
# Experiments:
# [1] = test system: DCs; conditions: cited from earlier work
# [2] = test system: lung DCs; conditions: mouse model; cited from earlier work
# [3] = molecular target: IP (Homo sapiens, UniProt P43119); conditions: compared with treprostinil; cited from earlier work
# [4] = cited from earlier work
# [5] = test system: Th2 cells; conditions: in vitro, Th2 cells differentiated under IL-4 and anti-IFN-γ; cited from earlier work
# [6] = in vivo; cited from earlier work
# [7] = oral administration; cited from earlier work
# [8] = rat, chronic administration; cited from earlier work
# [9] = molecular target: PGE2 receptor EP2 (Homo sapiens, UniProt P43116); conditions: cited from earlier work
# [10] = test system: type 2 innate lymphoid cells (ILC2); conditions: cited from earlier work
# [11] = test system: ILC2; conditions: WT mice; cited from earlier work
# [12] = test system: CD4^+ T cells; experiment: Intracellular cytokine staining for flow cytometry of IL-33-stimulated T cells; type: cell-based, mouse; conditions: in the presence of IL-33, 3 days, vs vehicle
# Procedure: (§1) CD4^+ T cells were purified from the splenic cells of WT, or IP KO mice by a mouse naive CD4^+ T cell isolation kit II (Miltenyi Biotec, Auburn, Calif.). The purified CD4^+CD62L^+ T cell population contains 97.5% CD3^+CD4^+ cells as determined by flow cytometry. The purified CD4 T cells were resuspended at 1×10^6 cells/ml in RPMI 1640 medium (Mediatech, Herndon, Va.) supplemented with 10% FBS (HyClone, Logan, Utah), 4 mM of L-glutamine, 1 mM of sodium pyruvate, […] of 2-ME, 10 mM of HEPES, 100 U/ml penicillin, and 100 μg/ml streptomycin. […]
# (§2) At day 3 of cell culture, the cells were harvested for flow cytometric staining with fluorochrome-labeled antibodies against CD4^+ (Biolegend, San Diego, Calif.), Gata3 (Affymetrix, Santa Clara, Calif.), CD25 (BD Biosciences, San Jose, Calif.), or TSLPR (R&D Systems, Minneapolis, Minn.). An LSR II flow cytometer (BD Biosciences) was used for flow cytometry and the data were analyzed with FlowJo software (FlowJo, LLC, Ashland Oreg.). For cell proliferation assay, CFSE intensity of the cultured cells was determined at day 3 by flow cytometry. Cell division index was calculated with FlowJo software. […]
# [13] = test system: naïve CD4^+ T cells of WT and IP KO mice; experiment: IL-33-induced type 2 cytokine production by naive CD4+ T cells (ELISA of culture supernatant); type: cell-based, mouse
# Procedure: (§3) CD4^+ T cells were purified from the splenic cells of WT, or IP KO mice by a mouse naive CD4^+ T cell isolation kit II (Miltenyi Biotec, Auburn, Calif.). The purified CD4^+CD62L^+ T cell population contains 97.5% CD3^+CD4^+ cells as determined by flow cytometry. The purified CD4 T cells were resuspended at 1×10^6 cells/ml in RPMI 1640 medium (Mediatech, Herndon, Va.) supplemented with 10% FBS (HyClone, Logan, Utah), 4 mM of L-glutamine, 1 mM of sodium pyruvate, […] of 2-ME, 10 mM of HEPES, 100 U/ml penicillin, and 100 μg/ml streptomycin. The cells were stimulated with plate-bound anti-CD3 (10 μg/ml) and anti-CD28 (2 μg/ml; BD Biosciences, San Diego, Calif.) in 96-well flat-bottom plates and treated with IL-33 (20 ng/ml) plus cicaprost (a generous gift provided by Dr. Manuela Huebner, Bayer HealthCare, Berlin, Germany) at various concentrations or vehicle (water) control. The cells were cultured for 3 days. For T cell proliferation experiments, naive CD4^+ T cells were stained with 1 μM CFSE before cell culture and cicaprost treatment.
# (§4) Cell culture supernatant was collected at day 2 for IL-2 measurement because IL-2 production by activated CD4^+ T cells peak at day 2 (unpublished data). At day 3, the culture supernatant was harvested for IL-4, IL-5 and IL-13 measurement. At day 2, the cells were harvested and the cell lysate was prepared for p-STAT5 measurement.
# (§5) IL-2, IL-4, IL-5, and IL-13 in the culture supernatant were measured by DuoSet ELISA kits from R&D Systems according to the manufacturer's instructions. Phosphorylated STAT5 (p-STAT5) was measured by phosphor-STAT5A/B (Tyr694/Tyr699) InstantOne™ ELISA kit (Affymetrixes). Measurements below the limit of detection were assigned a value of half the lower limit of detection for purposes of statistical analyses.
# To determine the effect of PGI2 signaling on IL-33-induced Th2 differentiation, naïve CD4^+ T cells of WT and IP KO mice, both on BALB/c background, were activated with anti-CD3 and anti-CD28 either with or without IL-33 and treated with cicaprost or vehicle for 3 days.
# [14] = test system: STAT5; experiment: Phosphorylated STAT5 in CD4+ T cell lysate (ELISA); type: cell-based, mouse; conditions: WT cells, 2 days, IL-33
# Procedure: as §4, §5
# Binding of IL-2 to IL-2 receptor leads to the activation of JAK1 and JAK3 and the activation of the downstream transcription factors STAT5 (21). To test whether cicaprost downregulates IL-2 receptor signaling, the levels of phosphorylated STAT5 were measured in CD4^+ T cells harvested 2 days after the cell activation and treatment with IL-33 plus either vehicle or cicaprost.
# [15] = test system: CD25; experiment: CD25 surface expression on CD4+ T cells by flow cytometry; type: cell-based, mouse; conditions: 3 days, vs vehicle control
# Procedure: as §3
# (§6) At day 3 of cell culture, the cells were harvested for flow cytometric staining with fluorochrome-labeled antibodies against CD4^+ (Biolegend, San Diego, Calif.), Gata3 (Affymetrix, Santa Clara, Calif.), CD25 (BD Biosciences, San Jose, Calif.), or TSLPR (R&D Systems, Minneapolis, Minn.). An LSR II flow cytometer (BD Biosciences) was used for flow cytometry and the data were analyzed with FlowJo software (FlowJo, LLC, Ashland Oreg.). For cell proliferation assay, CFSE intensity of the cultured cells was determined at day 3 by flow cytometry. Cell division index was calculated with FlowJo software. At day 3, the cells were stained with the cell viability dye 4,6-diamidino-2-phenylindole (DAPI), and 123count™ eBeads (Affymetrix) were added to the cell solution for live cell counting by flow cytometry.
# (§7) To determine whether cicaprost attenuates the IL-2 signaling pathway, CD4^+ T cells activated and treated with either cicaprost or vehicle for 3 days were stained with fluorochrome-labeled anti-CD25 antibody and analyzed by flow cytometry.
# [16] = test system: NFAT; experiment: NFAT function assay (NFAT-luciferase reporter lentiviral vector); type: cell-based, mouse; conditions: WT cells, after 3 days of cell culture
# Procedure: To determine NFAT activation, a Cignal Lenti NFAT reporter (luc) kit (Qiagen, Hilden, Germany), was used to transduce naïve CD4^+ T cells. CD4^+ T cells (10^5) of WT and IP KO mice were transduced with 2×10^5 transduction units of lentiviral vector (MOI=2) and 30 μg transduction reagent in 60 μl of transduction medium without antibiotics for 24 h in 96 well plates coated with anti-CD3 and anti-CD28. The cells were then pooled, washed, seeded and treated with IL-33 plus either cicaprost or vehicle. After culture for 2 more days in the same plates, the cells were harvested and the cell lysate was used for luciferase assay with Luciferase Assay System with Reporter Lysis Buffer (Promega, Madison, Wis.). The luciferase activity indicates the levels of NFAT activation. To determine whether the suppressive effect of cicaprost on IL-2 production is associated with the inhibition of NFAT, a transcription factor that binds to the IL-2 gene promoter to activate IL-2 gene expression, an NFAT function assay was performed with an NFAT-luciferase reporter lentiviral vector system.
# [17] = test system: CD4^+ T cells; experiment: CD4+ T cell proliferation (CFSE dilution) and live cell counting; type: cell-based, mouse; conditions: WT CD4+ T cells, 1000 nM, IL-33, day 3
# Procedure: as §1, §2
# To further analyze the effect of cicaprost on cell proliferation, naïve CD4^+ T cells were CFSE-labeled, activated with anti-CD3 and anti-CD28, and treated with IL-33 plus either vehicle or cicaprost. Cell proliferation was determined by CFSE dilution.
# [18] = test system: CD4^+ T cells; experiment: IL-2 production by CD4+ T cells (ELISA, day 2 supernatant); type: cell-based, mouse; conditions: WT CD4+ T cells, IL-33, day 2
# Procedure: as §1
# IL-2, IL-4, IL-5, and IL-13 in the culture supernatant were measured by DuoSet ELISA kits from R&D Systems according to the manufacturer's instructions. Phosphorylated STAT5 (p-STAT5) was measured by phosphor-STAT5A/B (Tyr694/Tyr699) InstantOne™ ELISA kit (Affymetrixes). […]
# In vitro activation of mouse naïve CD4^+ T cells results in the expression of IL-2, a growth factor critical for cell survival and proliferation (19). To investigate whether cicaprost inhibits IL-33-induced type 2 cytokine production by suppressing CD4^+ T cell IL-2 production and cell activation, IL-2 levels were measured in the culture supernatant.
# [19] = test system: Gata3; experiment: Gata3 expression in CD4+ T cells by flow cytometry; type: cell-based, mouse; conditions: WT mice, 1000 nM, IL-33, 3 days
# Procedure: as §3, §2
# The differentiation of naïve CD4^+ T cells into Th2 cells under IL-4 culture conditions requires the expression of the transcription factor Gata3 (18). To investigate whether Gata3 plays a role in the inhibitory effect of cicaprost on IL-33-induced type 2 cytokine production, the expression of Gata3 in CD4^+ T cells activated with IL-33 and treated with cicaprost at various concentrations or vehicle for 3 days was determined. […]
# [20] = test system: TSLPR; experiment: TSLPR expression on T cells by flow cytometry; type: cell-based, mouse; conditions: WT or IP KO T cell culture in the presence of IL-33 (data not shown)
# Procedure: as §6, §7
# [21] = IP KO CD4+ T cells, anti-CD3/anti-CD28 + IL-33, 3 days
# [22] = WT CD4+ T cells, anti-CD3/anti-CD28 + IL-33, 3 days
# [23] = in the presence of either 10 ng/ml or 50 ng/ml exogenous IL-2, IL-33, 3 days
# IP, sequence (P43119 whole entry): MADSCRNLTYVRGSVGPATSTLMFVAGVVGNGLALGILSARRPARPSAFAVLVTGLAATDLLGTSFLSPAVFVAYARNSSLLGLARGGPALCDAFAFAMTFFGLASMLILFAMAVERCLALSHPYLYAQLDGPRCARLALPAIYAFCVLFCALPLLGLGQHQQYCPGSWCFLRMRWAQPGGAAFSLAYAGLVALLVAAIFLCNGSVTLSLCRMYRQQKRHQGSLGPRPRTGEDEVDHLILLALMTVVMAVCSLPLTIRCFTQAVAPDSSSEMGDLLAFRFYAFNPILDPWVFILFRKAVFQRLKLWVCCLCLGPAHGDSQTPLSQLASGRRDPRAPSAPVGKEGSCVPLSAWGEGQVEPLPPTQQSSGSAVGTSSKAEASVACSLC
# PGE2 receptor EP2, sequence (P43116 whole entry): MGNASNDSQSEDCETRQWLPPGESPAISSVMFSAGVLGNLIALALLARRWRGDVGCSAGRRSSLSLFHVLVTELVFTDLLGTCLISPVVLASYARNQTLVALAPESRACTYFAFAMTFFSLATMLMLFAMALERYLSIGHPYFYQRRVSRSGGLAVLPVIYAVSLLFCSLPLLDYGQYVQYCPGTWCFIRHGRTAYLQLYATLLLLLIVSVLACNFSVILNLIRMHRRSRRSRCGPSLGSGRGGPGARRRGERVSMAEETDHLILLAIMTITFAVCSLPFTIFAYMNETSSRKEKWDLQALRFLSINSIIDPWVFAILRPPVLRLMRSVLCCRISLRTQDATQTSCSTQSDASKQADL
structure (smiles),measurement,setting,value
CC#CCC(C)[C@H](O)/C=C/[C@@H]1[C@H]2C/C(=C/CCCC(=O)O)C[C@H]2C[C@H]1O (stereo partly drawn) [Iloprost],LPS-induced expression of CD40 by DCs,[1],suppressed
same,LPS-induced expression of CD86 by DCs,[1],suppressed
same,LPS-induced expression of MHC class II molecules by DCs,[1],suppressed
same,ability of DCs to stimulate antigen-specific CD4 T cell proliferation,[1],inhibited
same,ability of DCs to stimulate production of the Th2 cytokine IL-5,[1],inhibited
same,ability of DCs to stimulate production of the Th2 cytokine IL-13,[1],inhibited
same,maturation and migration of lung DCs to the mediastinal LNs,[2],inhibited
same,specificity for IP,[3],greater specificity for IP than treprostinil
same,half-life,[4],13 min
same,production of effector cytokine IL-4,[5],inhibited
same,production of effector cytokine IL-5,[5],inhibited
same,safety of administration to pulmonary hypertension patients,[6],safe
same,iloprost reaching the systemic circulation,[7],less than 20%
"CCCCC[C@H](O)/C=C/[C@@H]1[C@H]2C/C(=C/CCCC(=O)O)O[C@H]2C[C@H]1O [PGI2, prostacyclin]",half-life (biologic half-life),[4],46 seconds and 60-90 seconds
CCCCC[C@H](O)CC[C@@H]1[C@H]2Cc3cccc(OCC(=O)O)c3C[C@H]2C[C@H]1O [Treprostinil],degree of experimentally-induced pulmonary hypertension,[8],decreasing
same,half-life compared with epoprostenol,[4],longer
same,safety of administration to pulmonary hypertension patients,[6],safely used
same,activation of PGE2 receptor EP2,[9],also activated
CCC#CC[C@H](C)[C@H](O)C#C[C@@H]1[C@H]2C/C(=C/COCC(=O)O)C[C@H]2C[C@H]1O [cicaprost],IL-33-induced cytokine responses of ILC2,[10],inhibited
same,LPS-induced expression of CD40 by DCs,[1],suppressed
same,LPS-induced expression of CD86 by DCs,[1],suppressed
same,LPS-induced expression of MHC class II molecules by DCs,[1],suppressed
same,ability of DCs to stimulate antigen-specific CD4 T cell proliferation,[1],inhibited
same,ability of DCs to stimulate production of the Th2 cytokine IL-5,[1],inhibited
same,ability of DCs to stimulate production of the Th2 cytokine IL-13,[1],inhibited
same,ILC2 response,[11],inhibited
same,total numbers of IL-4+ T cells,[12],dose-dependently decreased
same,total numbers of IL-13+ T cells,[12],dose-dependently decreased
same,IL-4 production,[13]; [21],did not change
same,IL-5 production,[13]; [21],did not change
same,IL-13 production,[13]; [21],did not change
same,IL-4 production,[13]; [22],dose dependently decreased
same,IL-5 production,[13]; [22],dose dependently decreased
same,IL-13 production,[13]; [22],dose dependently decreased
same,IL-5 production,[13]; [23],still significantly inhibited
same,IL-13 production,[13]; [23],still significantly inhibited
same,STAT5 phosphorylation,[14],dose-dependently attenuated
same,CD25 mean fluorescence intensity,[15],dose-dependently decreased
same,percentages of CD25 expressing cells,[15],dose-dependently decreased
same,total numbers of CD25 expressing cells,[15],dose-dependently decreased
same,NFAT function (luciferase activity),[16],significantly suppressed
same,production of effector cytokine IL-4,[5],inhibited
same,production of effector cytokine IL-5,[5],inhibited
same,cell division index,[17],significantly decreased
same,total number of live cells,[17],significantly decreased
same,IL-2 production,[18],dose-dependently suppressed
same,Gata3 mean fluorescence intensity,[19],significantly decreased
same,percentages of Gata3-expressing CD4+ T cells,[19],significantly decreased
same,total number of Gata3-expressing CD4+ T cells,[19],significantly decreased
same,TSLPR MFI,[20],did not change
same,percentages of TSLPR expressing cells,[20],did not change
